# Data published in ChEMBL document CHEMBL4831556, “Discovery of a Novel Potent and Selective Calcium Release-Activated Calcium Channel Inhibitor: 2,6-Difluoro-N-(2'-methyl-3'-(4-methyl-5-oxo-4,5-dihydro-1,3,4-oxadiazol-2-yl)-[1,1'-biphenyl]-4-yl)benzamide. Structure-Activity Relationship and Preclinical Characterization” (J Med Chem, 2021).
# Experiments:
# [1] = target: Protein orai-2/Stromal interaction molecule 1 (Homo sapiens, UniProt Q13586+Q96SN7); experiment: Inhibition of Orai2/STIM1 (unknown origin); assay type: protein-complex assay
# Protein orai-2/Stromal interaction molecule 1, sequence (Q96SN7 whole entry): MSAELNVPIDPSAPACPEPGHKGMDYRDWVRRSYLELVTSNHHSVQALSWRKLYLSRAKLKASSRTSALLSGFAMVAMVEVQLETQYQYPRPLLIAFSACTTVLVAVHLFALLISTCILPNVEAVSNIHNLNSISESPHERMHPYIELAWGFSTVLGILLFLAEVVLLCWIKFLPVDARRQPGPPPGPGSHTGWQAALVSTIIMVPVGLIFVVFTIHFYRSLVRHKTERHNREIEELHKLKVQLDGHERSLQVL
# Protein orai-2/Stromal interaction molecule 1, sequence (Q13586 whole entry): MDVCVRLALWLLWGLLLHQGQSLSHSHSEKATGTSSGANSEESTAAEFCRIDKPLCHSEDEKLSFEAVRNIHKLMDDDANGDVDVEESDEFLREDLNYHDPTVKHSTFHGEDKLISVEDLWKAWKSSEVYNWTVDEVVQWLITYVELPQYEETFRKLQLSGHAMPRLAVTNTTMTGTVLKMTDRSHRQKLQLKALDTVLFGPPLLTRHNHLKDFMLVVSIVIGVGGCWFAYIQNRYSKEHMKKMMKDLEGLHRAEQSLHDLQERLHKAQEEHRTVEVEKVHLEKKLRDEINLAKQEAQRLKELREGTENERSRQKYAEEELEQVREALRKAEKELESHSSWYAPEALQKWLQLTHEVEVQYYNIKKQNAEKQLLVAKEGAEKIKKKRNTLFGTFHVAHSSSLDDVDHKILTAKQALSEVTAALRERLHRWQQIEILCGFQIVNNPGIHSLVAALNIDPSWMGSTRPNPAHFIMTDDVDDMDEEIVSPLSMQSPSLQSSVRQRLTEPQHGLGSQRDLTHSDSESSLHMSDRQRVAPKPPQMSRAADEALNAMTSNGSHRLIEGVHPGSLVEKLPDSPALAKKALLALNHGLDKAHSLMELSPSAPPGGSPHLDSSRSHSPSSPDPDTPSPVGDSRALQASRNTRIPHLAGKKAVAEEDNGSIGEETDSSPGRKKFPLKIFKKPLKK
# ORAI1/STIM1 [2] = target: T1, ORAI1/STIM1 (Homo sapiens, UniProt Q13586+Q96D31); experiment: Inhibition of Orai1/STIM1 (unknown origin); assay type: protein-complex assay
# T1 sequence (Q96D31 whole entry): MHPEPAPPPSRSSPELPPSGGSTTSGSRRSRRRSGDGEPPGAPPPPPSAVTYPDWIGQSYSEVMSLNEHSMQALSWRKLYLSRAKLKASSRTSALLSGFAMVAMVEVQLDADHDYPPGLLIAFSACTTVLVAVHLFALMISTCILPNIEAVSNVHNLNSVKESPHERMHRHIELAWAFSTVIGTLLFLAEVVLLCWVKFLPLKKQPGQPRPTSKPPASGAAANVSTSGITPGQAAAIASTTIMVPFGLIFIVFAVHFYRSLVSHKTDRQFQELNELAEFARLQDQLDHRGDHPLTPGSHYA
# T1 sequence (Q13586 whole entry): as the sequence (Q13586 whole entry) above
# [3] = AUClast in Lewis rat at 10 mg/kg, po measured upto 24 hrs by LC-MS/MS analysis; assay type: ADME, organism-based; design: route oral, dose 10 mg/kg, time <=24; details: in vivo
# ORAI1/STIM1 [4] = target: T1, ORAI1/STIM1; experiment: Inhibition of human STIM1/Orai1 expressed in HEK293 cells assessed as reduction in Orai1 current by electrophysiological method; assay type: cell-based
# [5] = target: Stromal interaction molecule 1/Protein orai-3 (Homo sapiens, UniProt Q13586+Q9BRQ5); experiment: Inhibition of human STIM1/Orai3 expressed in HEK293 cells assessed as reduction in Orai3 current by electrophysiological method; assay type: cell-based
# [6] = Half life in Lewis rat at 1 mg/kg, iv measured upto 24 hrs by LC-MS/MS analysis; assay type: ADME, organism-based; details: in vivo
# [7] = Tmax in Lewis rat at 1 mg/kg, iv measured upto 24 hrs by LC-MS/MS analysis; assay type: ADME, organism-based; details: in vivo
# [8] = Inhibition of SOCE in human Jurkat E6.1 cells preincubated for 10 to 30 mins in presence of thapsigargin followed by calcium chloride addition and measured after 10 mins by FLIPR-tetra analysis; assay type: cell-based
# [9] = Half life in Lewis rat at 10 mg/kg, po measured upto 24 hrs by LC-MS/MS analysis; assay type: ADME, organism-based; details: in vivo
# [10] = Clearance in Lewis rat at 1 mg/kg, iv measured upto 24 hrs by LC-MS/MS analysis; assay type: ADME, organism-based; details: in vivo
# [11] = Volume of distribution at steady state in Lewis rat at 1 mg/kg, iv measured upto 24 hrs by LC-MS/MS analysis; assay type: ADME, organism-based; details: in vivo, read-out: Vdss
# [12] = Cmax in Lewis rat at 1 mg/kg, iv measured upto 24 hrs by LC-MS/MS analysis; assay type: ADME, organism-based; design: route intravenous, dose 1 mg/kg, time <=24; details: in vivo
# [13] = AUClast in Lewis rat at 1 mg/kg, iv measured upto 24 hrs by LC-MS/MS analysis; assay type: ADME, organism-based; design: route intravenous, dose 1 mg/kg, time <=24; details: in vivo
# [14] = Tmax in Lewis rat at 10 mg/kg, po measured upto 24 hrs by LC-MS/MS analysis; assay type: ADME, organism-based; details: in vivo
# [15] = Cmax in Lewis rat at 10 mg/kg, po measured upto 24 hrs by LC-MS/MS analysis; assay type: ADME, organism-based; design: route oral, dose 10 mg/kg, time <=24; details: in vivo
# [16] = Oral bioavailability in Lewis rat at 10 mg/kg measured upto 24 hrs by LC-MS/MS analysis; assay type: ADME, organism-based; details: in vivo
# ORAI1/STIM1 [17] = target: T1, ORAI1/STIM1; experiment: Inhibition of Orai1/STIM1 (unknown origin) expressed in HEK293 cells assessed as reduction in Ca2+-release activated Ca2+ entry current by manual patch clamp based electrophysiological method; assay type: cell-based
# in vivo [18] = details: DBA/1J, mouse, po, 0.75 mg/kg
# [19] = Tmax in collagen-induced rheumatoid arthritis DBA/1J mouse model at 0.75 mg/kg, po administered once daily for 15 days in presence of 3 mg/kg compound 36; assay type: ADME, organism-based; details: in vivo, time 15 day
# in vivo [20] = details: DBA/1J, mouse, po, 0.75 mg/kg; remark: listed apart in the source
# Description: Cmax in collagen-induced rheumatoid arthritis DBA/1J mouse model at 0.75 mg/kg, po administered once daily for 15 days
# [21] = AUClast in collagen-induced rheumatoid arthritis DBA/1J mouse model at 0.75 mg/kg, po administered once daily for 15 days in presence of 3 mg/kg compound 36; assay type: ADME, organism-based; design: route oral, dose 0.75 mg/kg, time 15 day; details: in vivo
# [22] = Tmax in collagen-induced rheumatoid arthritis DBA/1J mouse model at 0.75 mg/kg, po administered once daily for 15 days; assay type: ADME, organism-based; details: in vivo, time 15 day
# [23] = AUClast in collagen-induced rheumatoid arthritis DBA/1J mouse model at 0.75 mg/kg, po administered once daily for 15 days; assay type: ADME, organism-based; design: route oral, time 15 day, dose 0.75 mg/kg; details: in vivo
# [24] = Inhibition of SOCE in rat RBL-2H3 cells preincubated for 5 mins with thapsigargin followed by calcium chloride addition and measured after 5 mins by Fura-2AM dye based analysis; assay type: cell-based
compound,measurement,setting,value
Cc1cccc(F)c1C(=O)Nc1cnc(-c2cc3c(cc2Cl)OC(F)(F)O3)cn1 [ZEGOCRACTIN],IC50,[1],895 nM
same,IC50,ORAI1/STIM1 [2],119 nM
O=C(Nc1ccc(-c2cc(C(F)(F)F)ccc2Cl)cc1)c1c(F)cccc1F,AUC(0-t) at 24 h,[3],0.93 µM·h
O=C(Nc1ccn(Cc2ccc(O)cc2C(F)(F)F)n1)c1c(F)cccc1F,IC50,ORAI1/STIM1 [4],4 µM
same,IC50,[5],4 µM
Cc1ccc(-c2nn(C)c(=O)o2)cc1-c1ccc(NC(=O)c2c(F)cccc2F)cc1,half-life,[6],420 min
same,Tmax,[7],4.8 min
same,IC50,[8],140 nM
same,half-life,[9],912 min
same,clearance,[10],1.4 mL/min/kg
same,Vd,[11],0.7 L/kg
same,AUC(0-t) at 24 h,[3],75 µM·h
same,Cmax,[12],4.4 µM
same,AUC(0-t) at 24 h,[13],27 µM·h
same,Tmax,[14],4.8 h
same,Cmax,[15],4.1 µM
same,bioavailability,[16],28%
O=C(Nc1ccn(Cc2c(F)cccc2C(F)(F)F)n1)c1c(F)cccc1F,IC50,ORAI1/STIM1 [17],1000 nM
Cc1ccc(C2=NOC(C)(C)C2=O)cc1-c1cnc(NC(=O)c2c(F)cccc2F)cn1,AUC(0-t) at 24 h,[3],13 µM·h
CN(Cc1cnc2nc(N)nc(N)c2n1)c1ccc(C(=O)N[C@@H](CCC(=O)O)C(=O)O)cc1 [METHOTREXATE],Cmax at 360 h,in vivo [18],200 nM
same,Tmax,[19],1 h
same,Cmax at 360 h,in vivo [20],100 nM
same,AUC(0-t) at 360 h,[21],0.6 µM·h
same,Tmax,[22],1 h
same,AUC(0-t) at 360 h,[23],0.4 µM·h
O=C(Nc1ccc(-n2nc(C(F)(F)F)cc2C(F)(F)F)cc1)c1ccncc1F,IC50,[24],490 nM
